Active and inactive are the calls of the source. The rule behind the calls is not given here.
What was measured:
[1] = molecular target: T1, Histone deacetylase (Homo sapiens) (UniProt Q13547+O15379+Q9UBN7+Q92769+Q9UQL6+Q8WUI4+Q9BY41+Q96DB2+P56524+Q9UKV0+Q969S8); experiment: Inhibition of HDAC in human SW620 cells assessed as acetylated histone-H4 level at 1 uM after 24 hrs by Western blotting analysis; type: cell-based; settings: SW-620
ASPC1 [2] = experiment: Antiproliferative activity against human AsPC1 cells after 48 hrs by SRB assay; type: functional, cell-based; settings: ASPC1, 48 h
PC-3 = experiment: Antiproliferative activity against human PC3 cells after 48 hrs by SRB assay; type: functional, cell-based; settings: PC-3, 48 h
NCI-H460 = experiment: Antiproliferative activity against human NCI-H460 cells after 48 hrs by SRB assay; type: functional, cell-based; settings: NCI-H460, 48 h
SW-620 [3] = experiment: Antiproliferative activity against human SW620 cells after 48 hrs by SRB assay; type: functional, cell-based; settings: SW-620, 48 h
MCF7 = experiment: Antiproliferative activity against human MCF7 cells after 48 hrs by SRB assay; type: functional, cell-based; settings: MCF7, 48 h
[4] = molecular target: T1, Histone deacetylase (Homo sapiens); experiment: Inhibition of HDAC in human SW620 cells assessed as acetylated histone-H3 level at 1 uM after 24 hrs by Western blotting analysis; type: cell-based; settings: SW-620
SW-620 [5] = experiment: Antiproliferative activity against human SW620 cells at 30 uM after 48 hrs by SRB assay; type: functional, cell-based
ASPC1 [6] = experiment: Ratio of SAHA IC50 to compound IC50 for human AsPC1 cells; type: functional
SW-620 [7] = experiment: Ratio of SAHA IC50 to compound IC50 for human SW620 cells; type: functional

SMILES | inhibition [1] | IC50 (ASPC1 [2]) [nM] | IC50 (PC-3) [nM] | IC50 (NCI-H460) [nM] | IC50 (SW-620 [3]) [nM] | IC50 (MCF7) [nM] | inhibition [4] | Activity (SW-620 [5]) | Ratio IC50 (ASPC1 [6]) | Ratio IC50 (SW-620 [7])
CO/N=C1/C(=O)N(CCCCCCC(=O)NO)c2c(Cl)cccc21 | Active | 630 | 290 | 350 | 260 | 340 | Active | – | – | –
CO/N=C1/C(=O)N(CCCCCCC(=O)NO)c2ccc(C)cc21 | inactive | 5480 | 350 | 1190 | 1070 | 16700 | inactive | Active | – | –
CO/N=C1/C(=O)N(CCCCCCC(=O)NO)c2ccc(F)cc21 | Active | 970 | 1150 | 970 | 1110 | 2420 | Active | Active | – | –
O=C(CCCCCCN1C(=O)/C(=N\O)c2cc([N+](=O)[O-])ccc21)NO | inactive | 4680 | 19700 | 7710 | 3390 | 1340 | inactive | Active | – | –
CO/N=C1/C(=O)N(CCCCCCC(=O)NO)c2ccccc21 | Active | 1220 | 1670 | 750 | 730 | 1710 | Active | Active | – | –
O=C(CCCCCCN1C(=O)/C(=N\O)c2cc(Br)ccc21)NO | Active | 80 | 2210 | 970 | 290 | 1770 | Active | Active | 45 | –
CO/N=C1/C(=O)N(CCCCCCC(=O)NO)c2ccc(Cl)cc21 | Active | 490 | 2330 | 760 | 490 | 1560 | Active | Active | – | –
O=C(CCCCCCN1C(=O)/C(=N\O)c2cc(Cl)ccc21)NO | Active | 1860 | 850 | 850 | 650 | 680 | Active | Active | – | –
CO/N=C1/C(=O)N(CCCCCCC(=O)NO)c2ccc(Br)cc21 | Active | 1680 | 8910 | 2900 | 2320 | 7790 | Active | Active | – | –
O=C(CCCCCCN1C(=O)/C(=N\O)c2ccccc21)NO | Active | 1100 | 980 | 890 | 640 | 790 | Active | Active | – | –
CO/N=C1\C(=O)N(CCCCCCC(=O)NO)c2ccc([N+](=O)[O-])cc21 | inactive | 840 | 1690 | 14300 | 1350 | 940 | inactive | Active | – | –
Cc1ccc2c(c1)/C(=N/O)C(=O)N2CCCCCCC(=O)NO | Active | 2440 | 620 | 2090 | 990 | 1190 | Active | Active | – | –
O=C(CCCCCCN1C(=O)/C(=N\O)c2cc(F)ccc21)NO | Active | 1720 | 2730 | 1500 | 110 | 1550 | Active | Active | – | 30
O=C(CCCCCCN1C(=O)/C(=N\O)c2cccc(Cl)c21)NO | Active | 1820 | 1570 | 1350 | 1050 | 1740 | Active | – | – | –

— ChEMBL document CHEMBL3085752, “Novel isatin-based hydroxamic acids as histone deacetylase inhibitors and antitumor agents” (Eur J Med Chem, 2013)
